Experimental data taken from the supplement of paper PMC10307832.

Experiments:
Experiment in all cases: relative viability (nuclei count vs DMSO), 5 days (fraction); higher = more cells survive
[1] = test system: CAL-12T
In short: (§1)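 Dosing by pin tool came one day after lung cancer cell lines were seeded in 1536-well plates, using either one drug or a fixed anchor-drug dose plus five library-drug doses (not always all listed) in √10 steps. After 5 days, nuclei were counted on 4× images. Relative viability is treated-well nuclei count divided by vehicle-well nuclei count, and values are medians of duplicate plates.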

[2] = test system: COR-L 105
In short: as §1

[3] = test system: COR-L23
In short: as §1

[4] = test system: HARA
In short: as §1

[5] = test system: HCC-15
In short: as §1

[6] = test system: HCC-366
In short: as §1

[7] = test system: HCC-44
In short: as §1

[8] = test system: HCC-827
In short: as §1

[9] = test system: HOP-62
In short: as §1

[10] = test system: LC-2-ad
In short: as §1

[11] = test system: LCLC-97TM1
In short: as §1

[12] = test system: LU99A
In short: as §1

[13] = test system: LXF-289
In short: as §1

[14] = test system: NCI-H1993
In short: as §1

[15] = test system: NCI-H2009
In short: as §1

[16] = test system: NCI-H2087
In short: as §1

[17] = test system: NCI-H2126
In short: as §1

[18] = test system: PC-14
In short: as §1

[19] = test system: PC-3 [JPC-3]
In short: as §1

[20] = test system: NCI-H2170
In short: as §1

[21] = test system: SK-MES-1
In short: as §1

## COCC1(CO)C(=O)C2CCN1CC2 (stereo unspecified) [PRIMA-1MET] + CC(C)C[C@H](NC(=O)[C@H](Cc1ccccc1)NC(=O)c1cnccn1)B(O)O [Bortezomib] (partner 0.002 µM)
[1]; first compound 0.2 µM
  relative viability: 0.862
[1]; first compound 0.6325 µM
  relative viability: 0.947
[1]; first compound 2 µM
  relative viability: 1.15
[1]; first compound 6.325 µM
  relative viability: 0.946
[1]; first compound 20 µM
  relative viability: 0.245
[2]; first compound 0.2 µM
  relative viability: 1.12
[2]; first compound 0.6325 µM
  relative viability: 0.588
[2]; first compound 2 µM
  relative viability: 0.544
[2]; first compound 6.325 µM
  relative viability: 0.715
[2]; first compound 20 µM
  relative viability: 0.163
[3]; first compound 0.2 µM
  relative viability: 1.29
[3]; first compound 0.6325 µM
  relative viability: 0.97
[3]; first compound 2 µM
  relative viability: 0.954
[3]; first compound 6.325 µM
  relative viability: 1.05
[3]; first compound 20 µM
  relative viability: 0.0202
[4]; first compound 0.2 µM
  relative viability: 1.24
[4]; first compound 0.6325 µM
  relative viability: 0.704
[4]; first compound 6.325 µM
  relative viability: 1.07
[4]; first compound 20 µM
  relative viability: 1.14
[5]; first compound 0.2 µM
  relative viability: 1.02
[5]; first compound 0.6325 µM
  relative viability: 0.902
[5]; first compound 2 µM
  relative viability: 1.12
[5]; first compound 6.325 µM
  relative viability: 0.988
[5]; first compound 20 µM
  relative viability: 0.583
[6]; first compound 0.2 µM
  relative viability: 1.15
[6]; first compound 0.6325 µM
  relative viability: 0.838
[6]; first compound 6.325 µM
  relative viability: 1.01
[6]; first compound 20 µM
  relative viability: 0.0138
[7]; first compound 0.2 µM
  relative viability: 0.971
[7]; first compound 0.6325 µM
  relative viability: 0.76
[7]; first compound 2 µM
  relative viability: 0.927
[7]; first compound 6.325 µM
  relative viability: 0.911
[7]; first compound 20 µM
  relative viability: 0.877
[8]; first compound 0.2 µM
  relative viability: 1.13
[8]; first compound 0.6325 µM
  relative viability: 1.01
[8]; first compound 2 µM
  relative viability: 0.971
[8]; first compound 6.325 µM
  relative viability: 1.1
[8]; first compound 20 µM
  relative viability: 0.956
[9]; first compound 0.2 µM
  relative viability: 1.02
[9]; first compound 0.6325 µM
  relative viability: 0.648
[9]; first compound 2 µM
  relative viability: 0.965
[9]; first compound 6.325 µM
  relative viability: 0.736
[9]; first compound 20 µM
  relative viability: 0.443
[10]; first compound 0.2 µM
  relative viability: 1.11
[10]; first compound 0.6325 µM
  relative viability: 0.981
[10]; first compound 2 µM
  relative viability: 0.695
[10]; first compound 6.325 µM
  relative viability: 1.07
[10]; first compound 20 µM
  relative viability: 0.91
[11]; first compound 0.2 µM
  relative viability: 0.526
[11]; first compound 0.6325 µM
  relative viability: 0.428
[11]; first compound 2 µM
  relative viability: 0.533
[11]; first compound 6.325 µM
  relative viability: 0.47
[11]; first compound 20 µM
  relative viability: 0.0592
[12]; first compound 0.2 µM
  relative viability: 1.09
[12]; first compound 0.6325 µM
  relative viability: 0.957
[12]; first compound 2 µM
  relative viability: 1.15
[12]; first compound 6.325 µM
  relative viability: 0.892
[12]; first compound 20 µM
  relative viability: 0.103
[13]; first compound 0.2 µM
  relative viability: 0.999
[13]; first compound 0.6325 µM
  relative viability: 0.976
[13]; first compound 2 µM
  relative viability: 1.12
[13]; first compound 6.325 µM
  relative viability: 1
[13]; first compound 20 µM
  relative viability: 0.872
[14]; first compound 0.2 µM
  relative viability: 1.21
[14]; first compound 0.6325 µM
  relative viability: 1.07
[14]; first compound 2 µM
  relative viability: 1.94
[14]; first compound 6.325 µM
  relative viability: 1.02
[14]; first compound 20 µM
  relative viability: 1.24
[15]; first compound 0.2 µM
  relative viability: 0.714
[15]; first compound 0.6325 µM
  relative viability: 0.885
[15]; first compound 2 µM
  relative viability: 0.779
[15]; first compound 6.325 µM
  relative viability: 0.975
[15]; first compound 20 µM
  relative viability: 0.0124
[16]; first compound 0.2 µM
  relative viability: 1
[16]; first compound 0.6325 µM
  relative viability: 0.673
[16]; first compound 2 µM
  relative viability: 0.795
[16]; first compound 6.325 µM
  relative viability: 0.888
[16]; first compound 20 µM
  relative viability: 0.647
[17]; first compound 0.2 µM
  relative viability: 1.21
[17]; first compound 0.6325 µM
  relative viability: 1.13
[17]; first compound 2 µM
  relative viability: 1.06
[17]; first compound 6.325 µM
  relative viability: 1.16
[17]; first compound 20 µM
  relative viability: 1.1
[18]; first compound 0.2 µM
  relative viability: 0.98
[18]; first compound 0.6325 µM
  relative viability: 0.722
[18]; first compound 2 µM
  relative viability: 0.856
[18]; first compound 6.325 µM
  relative viability: 1.08
[18]; first compound 20 µM
  relative viability: 0.884
[19]; first compound 0.2 µM
  relative viability: 0.958
[19]; first compound 0.6325 µM
  relative viability: 0.688
[19]; first compound 2 µM
  relative viability: 0.874
[19]; first compound 6.325 µM
  relative viability: 0.858
[19]; first compound 20 µM
  relative viability: 0.792

## COCC1(CO)C(=O)C2CCN1CC2 (stereo unspecified) [PRIMA-1MET] + COc1cc2c(Oc3ccc(NC(=O)C4(C(=O)Nc5ccc(F)cc5)CC4)cc3F)ccnc2cc1OCCCN1CCOCC1 [Foretinib] (partner 0.25 µM)
[1]; first compound 0.2 µM
  relative viability: 1.33
[1]; first compound 0.6325 µM
  relative viability: 1.23
[1]; first compound 2 µM
  relative viability: 1
[1]; first compound 6.325 µM
  relative viability: 1.16
[1]; first compound 20 µM
  relative viability: 0.939
[2]; first compound 0.2 µM
  relative viability: 1.48
[2]; first compound 0.6325 µM
  relative viability: 1.02
[2]; first compound 2 µM
  relative viability: 1.17
[2]; first compound 6.325 µM
  relative viability: 1.2
[2]; first compound 20 µM
  relative viability: 0.551
[3]; first compound 0.2 µM
  relative viability: 1.23
[3]; first compound 0.6325 µM
  relative viability: 0.956
[3]; first compound 2 µM
  relative viability: 0.95
[3]; first compound 6.325 µM
  relative viability: 1.06
[3]; first compound 20 µM
  relative viability: 0.0732
[4]; first compound 0.2 µM
  relative viability: 1
[4]; first compound 0.6325 µM
  relative viability: 0.881
[4]; first compound 6.325 µM
  relative viability: 0.742
[4]; first compound 20 µM
  relative viability: 0.704
[5]; first compound 0.2 µM
  relative viability: 1.11
[5]; first compound 0.6325 µM
  relative viability: 0.986
[5]; first compound 2 µM
  relative viability: 1.03
[5]; first compound 6.325 µM
  relative viability: 1.02
[5]; first compound 20 µM
  relative viability: 0.555
[6]; first compound 0.2 µM
  relative viability: 0.84
[6]; first compound 0.6325 µM
  relative viability: 0.946
[6]; first compound 2 µM
  relative viability: 0.826
[6]; first compound 6.325 µM
  relative viability: 0.974
[6]; first compound 20 µM
  relative viability: 0.207
[8]; first compound 0.2 µM
  relative viability: 1.09
[8]; first compound 0.6325 µM
  relative viability: 0.976
[8]; first compound 2 µM
  relative viability: 0.749
[8]; first compound 6.325 µM
  relative viability: 1.01
[8]; first compound 20 µM
  relative viability: 0.929
[9]; first compound 0.2 µM
  relative viability: 1.18
[9]; first compound 0.6325 µM
  relative viability: 1.07
[9]; first compound 2 µM
  relative viability: 0.931
[9]; first compound 6.325 µM
  relative viability: 1.1
[9]; first compound 20 µM
  relative viability: 0.799
[10]; first compound 0.2 µM
  relative viability: 0.987
[10]; first compound 2 µM
  relative viability: 0.843
[10]; first compound 6.325 µM
  relative viability: 0.887
[10]; first compound 20 µM
  relative viability: 0.966
[11]; first compound 0.2 µM
  relative viability: 0.915
[11]; first compound 0.6325 µM
  relative viability: 0.909
[11]; first compound 2 µM
  relative viability: 0.926
[11]; first compound 6.325 µM
  relative viability: 0.945
[11]; first compound 20 µM
  relative viability: 0.826
[12]; first compound 0.2 µM
  relative viability: 0.84
[12]; first compound 0.6325 µM
  relative viability: 0.806
[12]; first compound 2 µM
  relative viability: 0.813
[12]; first compound 6.325 µM
  relative viability: 0.913
[12]; first compound 20 µM
  relative viability: 0.394
[13]; first compound 0.2 µM
  relative viability: 1.05
[13]; first compound 0.6325 µM
  relative viability: 0.95
[13]; first compound 2 µM
  relative viability: 0.993
[13]; first compound 6.325 µM
  relative viability: 1.02
[13]; first compound 20 µM
  relative viability: 0.949
[14]; first compound 0.2 µM
  relative viability: 0.875
[14]; first compound 0.6325 µM
  relative viability: 0.767
[14]; first compound 2 µM
  relative viability: 0.657
[14]; first compound 6.325 µM
  relative viability: 0.803
[14]; first compound 20 µM
  relative viability: 0.754
[15]; first compound 0.2 µM
  relative viability: 1.33
[15]; first compound 0.6325 µM
  relative viability: 1.17
[15]; first compound 2 µM
  relative viability: 1.22
[15]; first compound 6.325 µM
  relative viability: 1.22
[15]; first compound 20 µM
  relative viability: 0.52
[16]; first compound 0.2 µM
  relative viability: 1.29
[16]; first compound 0.6325 µM
  relative viability: 1.17
[16]; first compound 2 µM
  relative viability: 0.932
[16]; first compound 6.325 µM
  relative viability: 1.02
[16]; first compound 20 µM
  relative viability: 0.632
[17]; first compound 0.2 µM
  relative viability: 1.3
[17]; first compound 0.6325 µM
  relative viability: 0.993
[17]; first compound 2 µM
  relative viability: 1.22
[17]; first compound 6.325 µM
  relative viability: 1.23
[17]; first compound 20 µM
  relative viability: 1.13
[20]; first compound 0.2 µM
  relative viability: 1.04
[20]; first compound 0.6325 µM
  relative viability: 0.921
[20]; first compound 2 µM
  relative viability: 0.945
[20]; first compound 6.325 µM
  relative viability: 1.01
[20]; first compound 20 µM
  relative viability: 0.94
[18]; first compound 0.2 µM
  relative viability: 1.01
[18]; first compound 0.6325 µM
  relative viability: 0.87
[18]; first compound 2 µM
  relative viability: 0.931
[18]; first compound 6.325 µM
  relative viability: 1.12
[18]; first compound 20 µM
  relative viability: 0.914
[19]; first compound 0.2 µM
  relative viability: 1.12
[19]; first compound 0.6325 µM
  relative viability: 0.942
[19]; first compound 2 µM
  relative viability: 1.05
[19]; first compound 6.325 µM
  relative viability: 1.07
[19]; first compound 20 µM
  relative viability: 0.935
[21]; first compound 0.2 µM
  relative viability: 1.11
[21]; first compound 0.6325 µM
  relative viability: 0.941
[21]; first compound 2 µM
  relative viability: 0.795
[21]; first compound 6.325 µM
  relative viability: 1.15
[21]; first compound 20 µM
  relative viability: 0.955
